Laboratory results published in doi:10.1101/841569v1 (biorxiv, 2019).

Tests used:
Mtb-MenD [1] = target: T1, Mtb-MenD (Mycobacterium tuberculosis, UniProt P9WK11)
Mtb-MenD [2] = target: T1, Mtb-MenD; assay: biochemical
Mtb-MenD [3] = target: T1, Mtb-MenD; remark: listed apart in the source

T1 sequence (P9WK11 whole entry): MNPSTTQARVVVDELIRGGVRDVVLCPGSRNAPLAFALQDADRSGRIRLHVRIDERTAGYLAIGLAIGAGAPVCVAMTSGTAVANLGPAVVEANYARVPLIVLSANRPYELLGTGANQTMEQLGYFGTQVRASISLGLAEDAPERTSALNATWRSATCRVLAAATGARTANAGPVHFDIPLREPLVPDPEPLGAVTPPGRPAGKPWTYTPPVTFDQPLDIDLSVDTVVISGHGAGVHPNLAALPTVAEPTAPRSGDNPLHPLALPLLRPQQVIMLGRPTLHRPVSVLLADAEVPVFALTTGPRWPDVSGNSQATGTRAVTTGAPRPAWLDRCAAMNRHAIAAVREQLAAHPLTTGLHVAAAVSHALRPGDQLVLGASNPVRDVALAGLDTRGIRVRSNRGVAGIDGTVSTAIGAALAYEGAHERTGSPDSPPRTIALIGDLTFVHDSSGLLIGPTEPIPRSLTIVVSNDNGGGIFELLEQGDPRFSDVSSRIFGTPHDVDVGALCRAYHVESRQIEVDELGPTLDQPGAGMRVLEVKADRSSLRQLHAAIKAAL

Row | SMILES | % of non-inhibited activity at 20 μM (Mtb-MenD [1]) | IC50 (Mtb-MenD [2]) | X-ray crystal structure (co-crystallised, 1 mM ThDP) (Mtb-MenD [3])
1 | O=C(O)c1cc(O)c2ccccc2c1O [DHNA] | 24 ± 1% | 53 nM | 
2 | Cc1ncc(C[n+]2csc(CCOP(=O)(O)OP(=O)(O)O)c2C)c(N)n1 [ThDP] |  |  | acofactor (ThDP) bound DHNA complex
